Seven compounds from patent publication US10800791B2, “Triazole ACC inhibitors and uses thereof” (Gilead Apollo, LLC, priority 2015, dated 2020) can be followed below.

By IC50 is commonly meant the concentration at which inhibition is half-maximal. The term MIC denotes the smallest concentration in the dilution series that meets the test's criterion for growth inhibition.

Assay [1] concerns the target human (hACC2) (Homo sapiens, UniProt O00763). Nature of the assay: In vitro ACC inhibition assay (ADP-Glo), hACC2. It is filed as biochemical. The note with it: 5 nM ACC2, 20 μM ATP, 20 μM acetyl-CoA. As for the experimental part: The detailed procedure is as follows. […] 10 μL ADP glo reagent was added. […] 20 μL kinase detection reagent was added.
On the technique in general: In ADP-Glo the light output rises with the ADP produced.

Assay [2] concerns C. albicans. Nature of the assay: Antifungal Activity Assay (broth microtiter MIC), C. albicans. In kind it is cell-based, Candida albicans. The following applies: Candida albicans, ATCC90028, 48 h. Summed up:
(§1)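 Colonies from 24 h Sabouraud dextrose agar plates (35° C) are suspended in RPMI 1640+MOPS and diluted to give 2.5×10^3 CFU/mL in the wells. Plates are set up per CLSI M27-A3. Visual MIC is recorded at 48 h.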

Assay [3] concerns C. krusei. Put plainly: Antifungal Activity Assay (broth microtiter MIC), C. krusei. In kind it is cell-based, Candida krusei. The following applies: Pichia kudriavzevii, ATCC6258, 48 h. Summed up: as §1
The test system of assay [4] is C. parapsilosis. Nature of the assay: Antifungal Activity Assay (broth microtiter MIC), C. parapsilosis. The following applies: Lodderomyces parapsilosis, ATCC22019, 48 h. In kind it is cell-based, Candida parapsilosis. Summed up: as §1
Assay [5] has as its target fungal (fACC2) (UniProt Q00955). The following applies: read-out: fACC2 (in vitro ACC2 Inhibition Assay, IC50), ADP-Glo, 5 nM ACC2, 20 μM ATP, 20 μM acetyl-CoA.
Method: An exemplary procedure for the in vitro ACC inhibition assay, which can be used to determine the inhibitory action of compounds of the invention toward either human (hACC2) or fungal (fACC2), follows. The ADP-Glo™ Kinase Assay kit from Promega was used. The ADP-Glo™ Kinase Assay is a luminescent ADP detection assay to measure enzymatic activity by quantifying the amount of ADP produced during an enzyme reaction. The assay is performed in two steps; first, after the enzyme reaction, an equal volume of ADP-Glo™ Reagent is added to terminate the reaction and deplete the remaining ATP. Second, the Kinase Detection Reagent is added to simultaneously convert ADP to ATP and allow the newly synthesized ATP to be measured using a luciferase/luciferin reaction. Luminescence can be correlated to ADP concentrations by using an ATP-to-ADP conversion curve. […] 50 μL of the compound being tested (600 μM in DMSO) was added to a 384-well dilution plate. The compound was diluted 1:3 in succession in DMSO for each row for 11 wells. 0.5 μL ACC2 working solution was added to 384-well white Optiplate assay plate. 0.5 μL diluted compound solution in each column from step 2 was added to assay plate, each row containing 2 replicates. […] The plates were incubated at room temperature for 15 minutes. 5 μL substrate working solution was added to each well to initiate reaction. Final ACC2 reaction concentrations consist of: 5 nM ACC2, 20 μM ATP, 20 μM acetyl-CoA, 12 mM NaHCO3, 0.01% Brij35, 2 mM DTT, 5% DMSO, test compound concentrations: 30 μM, 10 μM, 3.33 μM, 1.11 μM, 0.37 μM, 0.123 μM, 0.0411 μM, 0.0137 μM, 0.00457 μM, 0.00152 μM, and 0.00051 μM. Plates were incubated at room temperature for 60 minutes. 10 μL ADP glo reagent was added. Plates were incubated at room temperature for 40 minutes. 20 μL kinase detection reagent was added. Plates were incubated at room temperature for 40 minutes, and then read on a Perkin Elmer EnVision 2104 plate reader for luminescence as Relative Light Units (RLU).
Data for each concentration, as well as the positive and negative controls were averaged, and the standard deviation calculated. Percent inhibition was calculated by the formula: 100×(average negative control−compound)/(average negative control−average positive control). The IC50 for each compound was calculated by fitting the data with a non-linear regression equation: Y=Bottom+(Top−Bottom)/(1+10 ((Log IC50−X)*HillSlope)), where X is the log of compound concentration and Y is percent inhibition.
Where [6] appears, read: Table 3a, ATCC 90028, 3 replicates, MIC recorded at 48 h, read-out: MIC, C. albicans ATCC 90028.
[7] abbreviates: Table 3b (additional results), ATCC 90028, 3 replicates, MIC recorded at 48 h, read-out: MIC, C. albicans ATCC 90028.
The mark [8] stands for this setting: Table 3a, ATCC 6258, 3 replicates, MIC recorded at 48 h, read-out: MIC, C. krusei ATCC 6258.
[9] abbreviates: Table 3b (additional results), ATCC 6258, 3 replicates, MIC recorded at 48 h, read-out: MIC, C. krusei ATCC 6258.
The mark [10] stands for this setting: Table 3a, ATCC 22019, 3 replicates, MIC recorded at 48 h, read-out: MIC, C. parapsilosis ATCC 22019.
The mark [11] stands for this setting: Table 3b (additional results), ATCC 22019, 3 replicates, MIC recorded at 48 h, read-out: MIC, C. parapsilosis ATCC 22019.
The mark [12] stands for this setting: read-out: MIC, C. albicans ATCC 90028, Table 3b (additional results), 3 replicates, MIC recorded at 48 h.
Where [13] appears, read: read-out: MIC, C. krusei ATCC 6258, Table 3b (additional results), 3 replicates, MIC recorded at 48 h.
Where [14] appears, read: read-out: MIC, C. parapsilosis ATCC 22019, Table 3b (additional results), 3 replicates, MIC recorded at 48 h.
Where [15] appears, read: read-out: MIC, C. albicans ATCC 90028, Table 3a, 3 replicates, MIC recorded at 48 h.
The mark [16] stands for this setting: read-out: MIC, C. krusei ATCC 6258, Table 3a, 3 replicates, MIC recorded at 48 h.
The mark [17] stands for this setting: read-out: MIC, C. parapsilosis ATCC 22019, Table 3a, 3 replicates, MIC recorded at 48 h.

Molecules are shown by their SMILES. ≈ marks a conversion by molar mass, not a printed value. Where two headings read alike, the source gives them in different places.

Chain of fungal (fACC2) (Q00955 whole entry): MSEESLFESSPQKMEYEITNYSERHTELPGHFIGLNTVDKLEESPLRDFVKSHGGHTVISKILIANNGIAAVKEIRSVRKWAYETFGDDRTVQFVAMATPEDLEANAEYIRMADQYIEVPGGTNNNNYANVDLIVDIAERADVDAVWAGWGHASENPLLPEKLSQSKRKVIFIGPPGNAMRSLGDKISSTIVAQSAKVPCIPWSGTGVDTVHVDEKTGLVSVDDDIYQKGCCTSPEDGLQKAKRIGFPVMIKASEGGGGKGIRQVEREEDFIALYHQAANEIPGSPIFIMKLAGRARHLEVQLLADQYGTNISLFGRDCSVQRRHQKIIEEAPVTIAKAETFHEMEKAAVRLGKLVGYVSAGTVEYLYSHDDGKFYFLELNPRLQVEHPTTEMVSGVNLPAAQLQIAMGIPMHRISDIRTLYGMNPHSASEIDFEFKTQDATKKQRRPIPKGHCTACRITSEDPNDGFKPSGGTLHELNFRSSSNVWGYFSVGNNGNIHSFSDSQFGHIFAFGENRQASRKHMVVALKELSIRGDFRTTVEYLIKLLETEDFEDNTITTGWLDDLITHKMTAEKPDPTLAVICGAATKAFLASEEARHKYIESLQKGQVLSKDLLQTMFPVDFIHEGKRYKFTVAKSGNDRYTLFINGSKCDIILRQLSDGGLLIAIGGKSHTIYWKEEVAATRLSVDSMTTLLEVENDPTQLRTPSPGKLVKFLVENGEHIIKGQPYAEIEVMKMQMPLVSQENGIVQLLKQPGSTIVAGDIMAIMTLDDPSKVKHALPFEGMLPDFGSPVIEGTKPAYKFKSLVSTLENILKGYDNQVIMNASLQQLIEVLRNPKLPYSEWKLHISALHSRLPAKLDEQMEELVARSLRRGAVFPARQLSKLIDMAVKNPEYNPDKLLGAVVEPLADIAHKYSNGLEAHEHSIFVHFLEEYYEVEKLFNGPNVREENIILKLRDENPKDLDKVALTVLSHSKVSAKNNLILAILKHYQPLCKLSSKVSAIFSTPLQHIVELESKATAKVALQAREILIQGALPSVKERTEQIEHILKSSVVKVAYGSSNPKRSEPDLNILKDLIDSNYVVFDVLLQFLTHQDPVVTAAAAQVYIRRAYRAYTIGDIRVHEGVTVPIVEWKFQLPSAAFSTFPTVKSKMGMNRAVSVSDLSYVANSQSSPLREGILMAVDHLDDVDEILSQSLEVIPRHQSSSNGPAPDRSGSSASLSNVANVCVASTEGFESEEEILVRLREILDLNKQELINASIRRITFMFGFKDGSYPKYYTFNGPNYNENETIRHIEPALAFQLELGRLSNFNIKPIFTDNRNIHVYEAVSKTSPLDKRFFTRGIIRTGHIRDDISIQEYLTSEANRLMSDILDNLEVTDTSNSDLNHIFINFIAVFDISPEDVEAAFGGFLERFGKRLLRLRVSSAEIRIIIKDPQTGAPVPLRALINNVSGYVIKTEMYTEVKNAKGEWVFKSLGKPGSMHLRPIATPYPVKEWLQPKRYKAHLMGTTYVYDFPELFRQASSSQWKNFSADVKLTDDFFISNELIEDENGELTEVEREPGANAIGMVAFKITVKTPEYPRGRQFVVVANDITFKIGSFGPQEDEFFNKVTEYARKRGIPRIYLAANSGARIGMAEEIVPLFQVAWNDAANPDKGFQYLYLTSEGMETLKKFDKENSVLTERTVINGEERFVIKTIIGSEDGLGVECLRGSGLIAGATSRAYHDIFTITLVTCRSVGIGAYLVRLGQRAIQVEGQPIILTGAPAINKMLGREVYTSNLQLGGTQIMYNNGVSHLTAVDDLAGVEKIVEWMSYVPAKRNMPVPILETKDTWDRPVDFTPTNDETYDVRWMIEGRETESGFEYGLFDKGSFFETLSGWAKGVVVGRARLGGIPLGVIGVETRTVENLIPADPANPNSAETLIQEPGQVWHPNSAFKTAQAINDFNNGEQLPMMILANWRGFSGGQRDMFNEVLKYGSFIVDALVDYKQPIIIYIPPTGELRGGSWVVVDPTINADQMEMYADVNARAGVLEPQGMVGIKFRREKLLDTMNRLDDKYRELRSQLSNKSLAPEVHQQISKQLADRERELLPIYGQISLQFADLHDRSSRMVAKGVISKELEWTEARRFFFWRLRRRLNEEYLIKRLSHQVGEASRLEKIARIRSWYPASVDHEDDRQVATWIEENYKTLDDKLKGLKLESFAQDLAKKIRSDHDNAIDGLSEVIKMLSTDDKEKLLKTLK
Chain of human (hACC2) (O00763 whole entry): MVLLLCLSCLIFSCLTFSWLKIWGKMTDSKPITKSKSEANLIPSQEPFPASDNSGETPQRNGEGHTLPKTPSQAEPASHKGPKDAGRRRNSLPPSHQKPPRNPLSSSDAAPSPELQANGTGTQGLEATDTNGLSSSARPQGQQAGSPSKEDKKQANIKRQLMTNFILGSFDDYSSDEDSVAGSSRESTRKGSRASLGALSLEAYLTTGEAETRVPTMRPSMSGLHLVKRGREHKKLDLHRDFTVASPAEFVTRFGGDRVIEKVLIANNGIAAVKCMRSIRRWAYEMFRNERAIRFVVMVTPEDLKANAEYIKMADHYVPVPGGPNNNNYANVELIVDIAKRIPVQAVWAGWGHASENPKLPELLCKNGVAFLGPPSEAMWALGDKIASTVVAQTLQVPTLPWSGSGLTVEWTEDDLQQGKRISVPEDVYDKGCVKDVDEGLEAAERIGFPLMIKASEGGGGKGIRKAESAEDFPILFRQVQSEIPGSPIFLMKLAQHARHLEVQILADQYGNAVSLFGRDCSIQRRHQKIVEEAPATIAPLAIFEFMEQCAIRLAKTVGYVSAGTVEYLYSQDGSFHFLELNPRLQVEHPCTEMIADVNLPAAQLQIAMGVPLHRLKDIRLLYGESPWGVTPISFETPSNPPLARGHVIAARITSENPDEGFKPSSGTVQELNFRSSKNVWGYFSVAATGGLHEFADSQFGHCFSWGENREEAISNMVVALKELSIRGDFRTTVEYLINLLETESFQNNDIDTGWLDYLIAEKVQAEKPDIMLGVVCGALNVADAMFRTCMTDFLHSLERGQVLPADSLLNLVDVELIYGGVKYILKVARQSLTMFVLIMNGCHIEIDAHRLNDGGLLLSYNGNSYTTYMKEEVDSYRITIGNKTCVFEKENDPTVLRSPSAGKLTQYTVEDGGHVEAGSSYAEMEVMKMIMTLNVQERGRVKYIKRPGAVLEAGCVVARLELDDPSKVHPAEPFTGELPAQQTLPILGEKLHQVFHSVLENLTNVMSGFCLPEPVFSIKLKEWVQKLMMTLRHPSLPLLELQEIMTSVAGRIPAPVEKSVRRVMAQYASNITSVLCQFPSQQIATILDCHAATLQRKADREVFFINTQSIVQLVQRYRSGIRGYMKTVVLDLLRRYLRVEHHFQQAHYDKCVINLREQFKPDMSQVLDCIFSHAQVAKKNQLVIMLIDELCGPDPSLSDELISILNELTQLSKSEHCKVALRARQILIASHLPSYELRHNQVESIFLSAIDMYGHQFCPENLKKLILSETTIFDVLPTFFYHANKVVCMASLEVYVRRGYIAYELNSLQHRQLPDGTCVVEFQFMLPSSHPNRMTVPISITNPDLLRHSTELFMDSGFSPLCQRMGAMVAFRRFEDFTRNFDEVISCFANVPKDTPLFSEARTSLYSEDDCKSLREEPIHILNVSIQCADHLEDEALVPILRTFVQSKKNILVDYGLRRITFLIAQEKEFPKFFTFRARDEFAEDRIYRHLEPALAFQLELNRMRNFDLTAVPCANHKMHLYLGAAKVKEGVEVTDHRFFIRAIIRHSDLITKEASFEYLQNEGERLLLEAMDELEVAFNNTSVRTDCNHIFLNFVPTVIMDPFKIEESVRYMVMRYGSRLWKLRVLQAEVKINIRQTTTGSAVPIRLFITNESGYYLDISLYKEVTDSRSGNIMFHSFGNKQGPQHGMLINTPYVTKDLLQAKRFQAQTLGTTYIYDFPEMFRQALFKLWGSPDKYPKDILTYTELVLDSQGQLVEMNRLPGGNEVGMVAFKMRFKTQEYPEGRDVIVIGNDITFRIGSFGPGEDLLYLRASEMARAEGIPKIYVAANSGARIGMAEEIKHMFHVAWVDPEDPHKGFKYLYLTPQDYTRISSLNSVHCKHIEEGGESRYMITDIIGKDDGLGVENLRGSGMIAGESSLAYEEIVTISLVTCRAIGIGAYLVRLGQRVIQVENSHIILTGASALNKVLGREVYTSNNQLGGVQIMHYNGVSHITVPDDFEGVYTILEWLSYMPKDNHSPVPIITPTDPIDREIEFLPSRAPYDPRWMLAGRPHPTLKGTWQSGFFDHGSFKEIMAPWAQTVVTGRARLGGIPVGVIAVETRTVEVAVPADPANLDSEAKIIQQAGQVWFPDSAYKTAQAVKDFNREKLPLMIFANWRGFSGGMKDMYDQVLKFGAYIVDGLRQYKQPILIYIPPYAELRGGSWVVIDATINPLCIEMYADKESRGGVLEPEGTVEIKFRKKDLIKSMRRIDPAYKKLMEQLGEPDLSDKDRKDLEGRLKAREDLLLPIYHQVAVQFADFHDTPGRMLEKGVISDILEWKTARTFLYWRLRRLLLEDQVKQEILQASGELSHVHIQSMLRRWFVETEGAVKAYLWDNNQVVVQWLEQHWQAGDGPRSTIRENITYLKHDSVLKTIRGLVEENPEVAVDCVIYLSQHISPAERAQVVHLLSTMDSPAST

With `COc1ccc(F)cc1[C@H](Cn1c(=O)n(C(C)(C)C(N)=O)c(=O)c2c(C)c(-n3nccn3)sc21)OCC(C)(C)C#N` [Compound I-155], the IC50 in assay [1] (Table 2a) fell in the range of 5 to 10 nM; in assay [1] (Table 2b, additional results), 5 to 10 nM; in assay [5] (Table 2a), 1 to 5 nM; in assay [5] (Table 2b, additional results), 1 to 5 nM. Moreover, the MIC in assay [2] (setting [6]) is 0.25 to 1 µg/mL (≈ 0.428 to 1.71 µM); in assay [2] (setting [7]), 1.01 to 2 µg/mL (≈ 1.73 to 3.43 µM); in assay [3] (setting [8]) it was 1.1 to 2 µg/mL (≈ 1.88 to 3.43 µM); in assay [3] (setting [9]), 2.01 to 4 µg/mL (≈ 3.44 to 6.85 µM); in assay [4] (setting [10]), 2.1 to 4 µg/mL (≈ 3.6 to 6.85 µM); in assay [4] (setting [11]), greater than 4.01 µg/mL.

As to `COc1ccc(F)cc1[C@H](Cn1c(=O)n(C(C)(C)C(=O)O)c(=O)c2c(C)c(-n3nccn3)sc21)O[C@H]1CC[C@@H](C#N)CC1` [Compound I-156], the IC50 is 10 to 40 nM in assay [1] (Table 2a); 10 to 40 nM in assay [1] (Table 2b, additional results); 0.4 to 1 nM in assay [5] (Table 2a); 0.3 to 1 nM in assay [5] (Table 2b, additional results). Further, the MIC in assay [2] (setting [12]) lay within 1.01 to 2 µg/mL (≈ 1.65 to 3.28 µM); in assay [3] (setting [13]) it was 1.01 to 2 µg/mL (≈ 1.65 to 3.28 µM); in assay [4] (setting [14]), 2.01 to 4 µg/mL (≈ 3.29 to 6.55 µM).

With `COc1ccc(F)cc1[C@H](Cn1c(=O)n(C(C)(C)C(=O)O)c(=O)c2c(C)c(-n3nccn3)sc21)O[C@H]1CC[C@H](C#N)CC1` [Compound I-157], the IC50 in assay [1] (Table 2a) lay in the range of 5 to 10 nM; in assay [1] (Table 2b, additional results), 5 to 10 nM; in assay [5] (Table 2a), 1 to 5 nM; in assay [5] (Table 2b, additional results), 1 to 5 nM. Also, the MIC in assay [2] (setting [7]) was 1.01 to 2 µg/mL (≈ 1.65 to 3.28 µM); in assay [3] (setting [9]), 1.01 to 2 µg/mL (≈ 1.65 to 3.28 µM); in assay [4] (setting [11]) it was 2.01 to 4 µg/mL (≈ 3.29 to 6.55 µM).

As for `COc1ccc(F)cc1[C@H](Cn1c(=O)n(C(C)(C)C(=O)NC(C)C)c(=O)c2c(C)c(-n3nccn3)sc21)O[C@H]1CC[C@@H](C#N)CC1` [Compound I-158], the IC50 in assay [1] (Table 2a) fell in the range of 10 to 40 nM; in assay [1] (Table 2b, additional results), 10 to 40 nM; in assay [5] (Table 2a), 1 to 5 nM; in assay [5] (Table 2b, additional results), 1 to 5 nM. In addition, the MIC lay in the range of 0.25 to 1 µg/mL (≈ 0.384 to 1.53 µM) in assay [2] (setting [15]); 0.25 to 1 µg/mL (≈ 0.384 to 1.53 µM) in assay [2] (setting [12]); 0.25 to 1 µg/mL (≈ 0.384 to 1.53 µM) in assay [3] (setting [16]); 0.06 to 0.249 µg/mL (≈ 0.0921 to 0.382 µM) in assay [3] (setting [13]); 1.1 to 2 µg/mL (≈ 1.69 to 3.07 µM) in assay [4] (setting [17]); 0.25 to 1 µg/mL (≈ 0.384 to 1.53 µM) in assay [4] (setting [14]).

As for `COc1ccc(F)cc1[C@H](Cn1c(=O)n(C(C)(C)C(=O)NC(C)C)c(=O)c2c(C)c(-n3nccn3)sc21)O[C@H]1CC[C@H](C#N)CC1` [Compound I-159], the IC50 in assay [1] (Table 2a) lay in the range of 1 to 5 nM; in assay [1] (Table 2b, additional results) it was 1 to 5 nM; in assay [5] (Table 2a) it was 1 to 5 nM; in assay [5] (Table 2b, additional results) it was 1 to 5 nM. The MIC was 0.25 to 1 µg/mL (≈ 0.384 to 1.53 µM) in assay [2] (setting [15]); 0.25 to 1 µg/mL (≈ 0.384 to 1.53 µM) in assay [2] (setting [12]); 0.25 to 1 µg/mL (≈ 0.384 to 1.53 µM) in assay [3] (setting [16]); 0.06 to 0.249 µg/mL (≈ 0.0921 to 0.382 µM) in assay [3] (setting [13]); 0.25 to 1 µg/mL (≈ 0.384 to 1.53 µM) in assay [4] (setting [17]); 0.25 to 1 µg/mL (≈ 0.384 to 1.53 µM) in assay [4] (setting [14]).

With `COc1ccc(F)cc1[C@H](Cn1c(=O)n(C(C)(C)C(=O)NC(C)(C)C)c(=O)c2c(C)c(-n3nccn3)sc21)OCCCO` [Compound I-160], the IC50 in assay [1] (Table 2a) was in the range of 5 to 10 nM; in assay [1] (Table 2b, additional results), 5 to 10 nM; in assay [5] (Table 2a), 1 to 5 nM; in assay [5] (Table 2b, additional results), 1 to 5 nM. In addition, the MIC lay in the range of 2.1 to 4 µg/mL (≈ 3.41 to 6.49 µM) in assay [2] (setting [6]); 2.01 to 4 µg/mL (≈ 3.26 to 6.49 µM) in assay [2] (setting [7]); 0.25 to 1 µg/mL (≈ 0.405 to 1.62 µM) in assay [3] (setting [8]); 1.01 to 2 µg/mL (≈ 1.64 to 3.24 µM) in assay [3] (setting [9]); 1.1 to 2 µg/mL (≈ 1.78 to 3.24 µM) in assay [4] (setting [10]); 2.01 to 4 µg/mL (≈ 3.26 to 6.49 µM) in assay [4] (setting [11]).

On to `COc1ccc(F)cc1[C@H](Cn1c(=O)n(C(C)(C)C(=O)NO)c(=O)c2c(C)c(-n3nccn3)sc21)OCCCO` [Compound I-161], for which the IC50 was in the range of 1 to 5 nM in assay [1] (Table 2a); 1 to 5 nM in assay [1] (Table 2b, additional results); 0.4 to 1 nM in assay [5] (Table 2a); 0.3 to 1 nM in assay [5] (Table 2b, additional results). The MIC in assay [2] (setting [6]) lay in the range of 2.1 to 4 µg/mL (≈ 3.64 to 6.94 µM); in assay [2] (setting [7]) it was 2.01 to 4 µg/mL (≈ 3.49 to 6.94 µM); in assay [3] (setting [8]), 2.1 to 4 µg/mL (≈ 3.64 to 6.94 µM); in assay [3] (setting [9]), 1.01 to 2 µg/mL (≈ 1.75 to 3.47 µM); in assay [4] (setting [10]) it was 2.1 to 4 µg/mL (≈ 3.64 to 6.94 µM); in assay [4] (setting [11]), 2.01 to 4 µg/mL (≈ 3.49 to 6.94 µM).
